Results reported in US11213522B2, “Autoimmune-induced glutamatergic receptor dysfunction methods and treatments” (SARAH HERZOG MEMORIAL HOSPITAL EZRAT NASHIM ASSOCIATION, priority 2013, dated 2022).

Key:
Assay type in all cases: in vivo, human
[1] = tested on: patient positive for anti-NR1 NMDAR antibodies; assay: Side effects and tolerability (UKU Side Effect Rating Scale, medical work-up), D-serine clinical trial; conditions: throughout the study; 1500 to 4000 mg/day over 6 weeks, adjuvant
Procedure: (§1) The trial consisted of two periods, starting with a 2 week lead-in/stabilization period (−2-0) following which the patient was entered in the second period of the study which consisted of a 6 week (0-6), open-label, fixed dose therapy phase. During this phase, the patient received adjuvant treatment with DSR, whose dose was increased from 1500 mg/day (week 1) to 2000 mg/day (weeks 2 and 3) to 3000 mg/day (weeks 4 and 5) and to 4000 mg/day (week 6). The doses of the ongoing medication received by the patient remained fixed throughout the study and no changes in medication were performed.
The patient underwent prior to entering the study and at study weeks 3 and 6 a medical work-up including complete medical history, and routine clinical blood work, including blood count+differential, lipids, and glucose levels, kidney, thyroid, and liver function parameters, urinalysis, and blood pressure measurements. Abdominal ultrasound was performed prior to study entry and electroencephalogram (EEG) and brain magnetic resonance imaging (MR1) were obtained pre- and post-DSR administration.
The assessment procedures used in the study included clinical and neurocognitive examinations. Motor and psychiatric symptoms as well as side-effects were rated biweekly throughout the study. […] In conjunction with UKU ratings, patient's vital signs and body weight were monitored throughout the study.

[2] = tested on: patient positive for anti-NR1 NMDAR antibodies; assay: Trail-Making-Test (TMT) part A and part B; conditions: post-6 weeks D-serine
Procedure: as §1
(§2) In addition, cognitive performance was assessed pre- and post DSR treatment. For this purpose, a 1.5-hour neurocognitive assessment battery (nine computerized and two paper/pencil tests) was employed that measures accuracy and speed of performance in major cognition domains, including attention/vigilance, planning, short-term and working memory, decision making, abstraction and mental flexibility. All the tests were formatted like games and puzzles, and were administered to the patient as part of the comprehensive neuropsychiatric assessment at baseline and the end of study. […]

[3] = tested on: patient positive for anti-NR1 NMDAR antibodies; assay: Neurocognitive assessment battery (overall)
Procedure: as §1, §2

For `N[C@H](CO)C(=O)O` [D-serine], the Side effects [1] was “no side effects were registered”, the “Tolerability of DSR treatment” value [1] was “well tolerated” and the “TMT Part A” value ([2]; pre-treatment 42) was 60.71 s. For the same compound, the “TMT Part B” value ([2]; pre-treatment 102) was 86.35 s, the “Completion of DST, TMT and WCST tasks” value ([3]; post-DSR treatment, not comprehended/performed at baseline) was “successfully completed” and the “Effect upon cognitive performance (test battery)” value ([3]; post-DSR vs baseline, improvements in working memory, abstraction and mental flexibility) was “favorable effect”.
